Experimental data published in patent US8153116B2, “Use of conditional plasmodium strains lacking an essential gene in malaria vaccination” (University of Connecticut, priority 2006, dated 2012).

Test system: wild type, pfpmtΔ+PfPMT and pfpmtΔ parasites
Assay: TUNEL assay of drug-treated parasites
Type: cell-based, Plasmodium falciparum
Conditions: 100 nM, 24 h
Method: The terminal deoxynucleotidyl transferase (TdT) dUTP nick end labeling (TUNEL) kit (Roche) was used to detect apoptotic cells following the manufacturer's instructions, with some modifications. Briefly, asynchronous cultures were grown to 10% parasitemia and 1 ml of the culture aliquots were washed twice with PBS and the cell count adjusted to 1×10^6 cells/ml. Fixation was achieved by resuspending the cells in 2% paraformaldehyde solution in PBS and incubated at room temperature for 1 h. The fixed cells were washed twice with PBS, resuspended in 100 μl of 0.1% Triton X-100 in 0.1% sodium citrate solution, and incubated for 2 min on ice. Cells were then washed twice in PBS and kept on ice until labeling. A positive control sample was prepared by incubating fixed and permeabilized cells with 3000 U/ml of DNase I for 15 min at room temperature followed by two washes with PBS. To label the cells, 50 μl of the TUNEL reaction mixture was added to the cell pellet and mixed gently. A negative control sample was included by treating fixed, permeabilized cells with the labeling solution in, the absence of the terminal TdT enzyme. The reaction mixtures were incubated in the dark at 37° C. for 1 h and then washed twice in PBS and resuspended in 250 μl PBS. Cells were analyzed by fluorescence microscopy at 525 nm wavelength with the FITC filter. […]

CCN(CC)CCCC(C)Nc1ccnc2cc(Cl)ccc12 (stereo not shown) [chloroquine]
TUNEL staining of drug-treated parasites: positively stained with TUNEL
